Experimental data as given in patent US10709707B2, “Methods of treating ocular conditions” (Oyster Point Pharma, Inc., priority 2016, dated 2020).
Values joined by “and” are separate entries in the source; they are usually repeats but may differ in a detail not shown here. Identical values can stand only once. “Also recorded” adds a separate entry of the source.

Experiments:
[1] = system: arterial pressure, heart rate, ECG, body temperature; experiment: Cardiovascular safety, conscious telemetered monkeys po; format: in vivo, Monkey: Cynomologous; conditions: single oral doses 3, 10, 30 mg/kg
human α4β2 = human α4β2 (Homo sapiens, UniProt P17787+P43681); experiment: Receptor binding α4β2, recombinant human receptors in SH-EP1 cells; conditions: [3H]-S-nicotine, human α4β2 expressed in SH-EP1 cells
Sequence of human α4β2 (P43681 29-627 limits assumed): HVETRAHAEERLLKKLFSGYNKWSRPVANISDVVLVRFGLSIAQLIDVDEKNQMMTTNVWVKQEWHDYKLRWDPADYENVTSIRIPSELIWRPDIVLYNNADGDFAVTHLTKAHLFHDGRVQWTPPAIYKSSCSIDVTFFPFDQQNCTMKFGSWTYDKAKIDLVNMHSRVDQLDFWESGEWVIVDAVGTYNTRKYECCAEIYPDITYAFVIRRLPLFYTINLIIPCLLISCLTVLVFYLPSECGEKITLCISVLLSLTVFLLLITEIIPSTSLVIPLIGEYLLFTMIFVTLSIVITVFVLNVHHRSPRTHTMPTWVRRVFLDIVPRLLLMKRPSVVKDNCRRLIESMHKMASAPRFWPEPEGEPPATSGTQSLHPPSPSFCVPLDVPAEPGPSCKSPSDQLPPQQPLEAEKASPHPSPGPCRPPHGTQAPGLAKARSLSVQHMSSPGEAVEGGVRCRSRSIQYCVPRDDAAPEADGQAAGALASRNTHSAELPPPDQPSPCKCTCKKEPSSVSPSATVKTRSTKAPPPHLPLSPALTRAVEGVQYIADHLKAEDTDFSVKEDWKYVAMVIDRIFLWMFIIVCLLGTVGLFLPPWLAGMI
Sequence of human α4β2 (P17787 26-502): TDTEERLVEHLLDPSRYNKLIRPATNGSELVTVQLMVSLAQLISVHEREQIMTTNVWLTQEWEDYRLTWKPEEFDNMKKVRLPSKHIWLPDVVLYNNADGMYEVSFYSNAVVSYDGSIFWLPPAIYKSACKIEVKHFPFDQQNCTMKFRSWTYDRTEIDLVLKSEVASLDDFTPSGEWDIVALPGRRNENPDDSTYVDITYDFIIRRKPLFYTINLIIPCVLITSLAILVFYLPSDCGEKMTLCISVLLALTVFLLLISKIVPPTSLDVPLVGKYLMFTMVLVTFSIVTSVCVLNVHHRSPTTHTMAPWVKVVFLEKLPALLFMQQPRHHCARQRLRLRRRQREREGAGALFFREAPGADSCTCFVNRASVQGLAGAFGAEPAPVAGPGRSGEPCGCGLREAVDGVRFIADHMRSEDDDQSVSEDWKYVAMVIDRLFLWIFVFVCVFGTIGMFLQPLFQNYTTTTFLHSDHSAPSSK

[2] = system: blood pressure, heart rate, ECG; experiment: Cardiovascular safety, telemetry in conscious dogs po; format: in vivo, Dog: Beagle
[3] = as above; format: in vivo, Dog: Beagle; conditions: beagle, dog, in vivo; 5, 10, 20 mg/kg po; read-out: terminal half-life (TK)
[4] = target: T1, ganglionic receptor (α3β4) (Homo sapiens, UniProt P30926+P32297); experiment: Receptor binding ganglionic receptor, SH-SY5Y membranes
T1 construct: endogenous in cells
T1 sequence (P32297 32-505): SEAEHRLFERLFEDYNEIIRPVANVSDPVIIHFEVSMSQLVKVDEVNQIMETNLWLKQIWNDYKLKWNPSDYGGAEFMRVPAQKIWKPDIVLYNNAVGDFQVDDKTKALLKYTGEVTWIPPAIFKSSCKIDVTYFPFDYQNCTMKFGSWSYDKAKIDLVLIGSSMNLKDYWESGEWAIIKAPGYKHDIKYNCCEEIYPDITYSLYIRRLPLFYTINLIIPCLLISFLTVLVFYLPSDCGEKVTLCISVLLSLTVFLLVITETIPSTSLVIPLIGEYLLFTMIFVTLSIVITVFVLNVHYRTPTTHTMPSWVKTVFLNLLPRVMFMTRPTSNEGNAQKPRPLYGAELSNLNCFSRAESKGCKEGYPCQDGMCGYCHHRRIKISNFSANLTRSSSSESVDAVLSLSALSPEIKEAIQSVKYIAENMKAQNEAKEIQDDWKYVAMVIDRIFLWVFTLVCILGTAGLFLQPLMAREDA
T1 sequence (P30926 22-498): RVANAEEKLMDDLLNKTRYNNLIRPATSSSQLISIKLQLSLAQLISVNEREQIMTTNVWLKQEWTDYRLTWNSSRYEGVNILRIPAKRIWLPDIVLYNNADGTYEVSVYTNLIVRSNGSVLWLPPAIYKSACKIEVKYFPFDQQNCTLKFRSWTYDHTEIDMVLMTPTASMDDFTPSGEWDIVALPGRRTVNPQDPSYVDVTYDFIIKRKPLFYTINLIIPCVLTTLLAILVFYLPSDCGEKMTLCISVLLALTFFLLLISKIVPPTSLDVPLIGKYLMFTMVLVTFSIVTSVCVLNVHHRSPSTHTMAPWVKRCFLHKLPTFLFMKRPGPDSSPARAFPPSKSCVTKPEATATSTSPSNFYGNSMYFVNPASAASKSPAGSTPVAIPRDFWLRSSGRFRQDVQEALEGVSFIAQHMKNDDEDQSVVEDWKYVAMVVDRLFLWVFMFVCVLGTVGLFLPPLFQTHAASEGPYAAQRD

[5] = 2-week and 13-week repeated dose TK studies, monkey; format: in vivo; conditions: for emesis: 100 mg/kg/day
Method: In 2-week and 13-week repeated dose TK studies in monkey, animals were dosed orally at 10, 30 or 100 mg/kg/day (2-week study) or at 10, 30 or 60 mg/kg/day (13-week study). […] In the 2-week study, exposure increased roughly proportional to dose from 10 to 30 mg/kg/day on Days 1 and 14 and less than proportionally from 30 to 100 mg/kg/day on Days 1 and 14; emesis in the 100 mg/kg/day dose group, 6/6 animals on Day 1 and 5/6 animals on Day 14, may have contributed to this. There was little accumulation in any dose group from Day 1 to Day 14.

[6] = system: cultured human peripheral blood lymphocytes; experiment: chromosome aberration assay; format: cell-based; conditions: in vitro
Source text: Compound 1 was negative for mutagenicity in both in vitro bioassays—including an Ames test, a micronucleus test in mouse lymphoma cells, and a chromosome aberration assay using cultured human peripheral blood lymphocytes—and an in vivo rat bone marrow micronucleus test.

[7] = Single dose pharmacokinetics, mouse; format: in vivo, Swiss mouse; conditions: for half-life: po, 1 mg/kg
a3b2 = target: T2, a3b2 (Homo sapiens, UniProt P17787+P32297); experiment: Receptor function a3b2, Ca++ flux; format: cell-based
T2 construct: expressed in transfected cells
T2 sequence (P32297 32-505): as the sequence (P32297 32-505) above
T2 sequence (P17787 26-502): as the sequence (P17787 26-502) above

muscle receptor (α1β1δγ) = target: T3, muscle receptor (α1β1δγ) (Homo sapiens, UniProt P02708+P07510+Q07001); experiment: Receptor binding muscle receptor, TE-671 membranes
T3 construct: endogenous in cells; host or cells: TE671 (TE-671) cells / membranes (per the earlier reading)
T3 sequence (P11230 24-501): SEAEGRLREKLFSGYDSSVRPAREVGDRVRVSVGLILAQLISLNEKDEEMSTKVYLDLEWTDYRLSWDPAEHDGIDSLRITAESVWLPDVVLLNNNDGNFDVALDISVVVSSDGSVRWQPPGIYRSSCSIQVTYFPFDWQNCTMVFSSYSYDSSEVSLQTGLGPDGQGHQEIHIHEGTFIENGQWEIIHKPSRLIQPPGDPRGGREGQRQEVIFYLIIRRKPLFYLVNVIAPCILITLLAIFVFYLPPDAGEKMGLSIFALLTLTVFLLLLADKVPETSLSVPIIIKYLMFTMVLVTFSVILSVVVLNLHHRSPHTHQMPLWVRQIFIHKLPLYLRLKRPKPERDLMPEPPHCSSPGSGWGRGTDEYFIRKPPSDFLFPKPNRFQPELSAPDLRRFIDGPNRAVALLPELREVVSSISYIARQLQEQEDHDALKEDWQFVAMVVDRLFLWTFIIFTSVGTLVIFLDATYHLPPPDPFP
T3 sequence (P02708 21-457): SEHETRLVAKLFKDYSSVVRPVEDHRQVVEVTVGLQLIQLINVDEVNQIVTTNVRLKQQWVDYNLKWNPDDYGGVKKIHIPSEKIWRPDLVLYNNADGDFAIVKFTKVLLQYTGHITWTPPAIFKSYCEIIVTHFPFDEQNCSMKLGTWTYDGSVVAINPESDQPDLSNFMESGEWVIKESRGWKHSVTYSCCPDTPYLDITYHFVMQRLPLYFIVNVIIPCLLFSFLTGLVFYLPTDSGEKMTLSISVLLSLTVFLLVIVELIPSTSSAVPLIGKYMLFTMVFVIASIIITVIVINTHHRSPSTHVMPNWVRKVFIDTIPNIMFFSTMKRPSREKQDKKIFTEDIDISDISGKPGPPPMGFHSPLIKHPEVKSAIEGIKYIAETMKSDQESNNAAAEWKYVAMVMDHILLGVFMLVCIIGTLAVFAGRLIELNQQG
T3 sequence (Q07001 22-517): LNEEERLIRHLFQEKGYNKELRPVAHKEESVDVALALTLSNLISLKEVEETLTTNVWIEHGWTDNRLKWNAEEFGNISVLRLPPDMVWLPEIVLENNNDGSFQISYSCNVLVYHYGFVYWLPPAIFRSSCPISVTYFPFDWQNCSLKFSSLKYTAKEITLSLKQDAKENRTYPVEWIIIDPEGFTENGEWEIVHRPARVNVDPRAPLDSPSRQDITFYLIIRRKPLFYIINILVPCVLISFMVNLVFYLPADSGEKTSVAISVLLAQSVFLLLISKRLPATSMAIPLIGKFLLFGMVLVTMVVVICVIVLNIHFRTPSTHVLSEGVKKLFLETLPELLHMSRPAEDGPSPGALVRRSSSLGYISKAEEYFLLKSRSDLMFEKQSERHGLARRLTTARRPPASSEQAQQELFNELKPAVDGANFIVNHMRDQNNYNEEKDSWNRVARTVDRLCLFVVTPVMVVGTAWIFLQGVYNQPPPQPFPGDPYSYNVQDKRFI
T3 sequence (P07510 23-517): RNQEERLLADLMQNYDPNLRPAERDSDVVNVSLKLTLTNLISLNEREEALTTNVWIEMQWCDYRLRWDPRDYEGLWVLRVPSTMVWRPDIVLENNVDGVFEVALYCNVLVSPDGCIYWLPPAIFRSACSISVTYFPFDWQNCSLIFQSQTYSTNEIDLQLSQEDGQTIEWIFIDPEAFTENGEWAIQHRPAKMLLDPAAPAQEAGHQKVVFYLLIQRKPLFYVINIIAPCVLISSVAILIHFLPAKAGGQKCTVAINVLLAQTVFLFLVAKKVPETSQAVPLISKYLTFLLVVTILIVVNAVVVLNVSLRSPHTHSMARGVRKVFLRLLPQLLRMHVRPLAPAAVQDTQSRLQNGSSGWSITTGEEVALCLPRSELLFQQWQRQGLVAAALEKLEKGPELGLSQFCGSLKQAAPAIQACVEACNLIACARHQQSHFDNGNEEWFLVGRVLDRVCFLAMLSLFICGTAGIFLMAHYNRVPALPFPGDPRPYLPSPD

α4β2 (rat), a4b2*/a6b2* = experiment: Receptor function, [3H]-dopamine release from rat striatal synaptosomes; format: biochemical
[8] = Solubility in aqueous solutions; format: physicochemical
formalin test = experiment: Analgesic effects, formalin test; format: in vivo, Mouse: CD-1; conditions: po; Compound 1 0.1, 1 and 10 mg/kg, Aspirin 100 mg/kg, Morphine 30 mg/kg
[9] = target: T4, rat ganglion receptors α3β4 (Rattus norvegicus, UniProt P04757+P12392); experiment: Receptor function ganglionic receptors (rat), PC-12 cells; format: cell-based; conditions: for Emax: PC-12, Rat ganglion-type (a3b4*)
T4 construct: endogenous in cells; host or cells: PC-12 cells (per the earlier reading)
T4 sequence (P04757 26-499): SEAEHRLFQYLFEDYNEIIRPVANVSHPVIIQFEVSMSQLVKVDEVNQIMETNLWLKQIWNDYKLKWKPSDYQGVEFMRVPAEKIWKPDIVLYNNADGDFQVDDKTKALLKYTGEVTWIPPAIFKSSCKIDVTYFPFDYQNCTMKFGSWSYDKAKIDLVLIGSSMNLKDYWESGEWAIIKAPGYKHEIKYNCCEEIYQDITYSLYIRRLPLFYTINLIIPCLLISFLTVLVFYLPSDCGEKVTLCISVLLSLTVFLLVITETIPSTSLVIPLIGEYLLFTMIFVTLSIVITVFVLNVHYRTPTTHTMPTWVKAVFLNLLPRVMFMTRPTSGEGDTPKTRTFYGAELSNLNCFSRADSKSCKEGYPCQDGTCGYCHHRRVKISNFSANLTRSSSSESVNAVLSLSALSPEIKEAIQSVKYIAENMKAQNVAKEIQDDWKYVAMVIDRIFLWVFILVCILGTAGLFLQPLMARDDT
T4 sequence (P12392 21-495): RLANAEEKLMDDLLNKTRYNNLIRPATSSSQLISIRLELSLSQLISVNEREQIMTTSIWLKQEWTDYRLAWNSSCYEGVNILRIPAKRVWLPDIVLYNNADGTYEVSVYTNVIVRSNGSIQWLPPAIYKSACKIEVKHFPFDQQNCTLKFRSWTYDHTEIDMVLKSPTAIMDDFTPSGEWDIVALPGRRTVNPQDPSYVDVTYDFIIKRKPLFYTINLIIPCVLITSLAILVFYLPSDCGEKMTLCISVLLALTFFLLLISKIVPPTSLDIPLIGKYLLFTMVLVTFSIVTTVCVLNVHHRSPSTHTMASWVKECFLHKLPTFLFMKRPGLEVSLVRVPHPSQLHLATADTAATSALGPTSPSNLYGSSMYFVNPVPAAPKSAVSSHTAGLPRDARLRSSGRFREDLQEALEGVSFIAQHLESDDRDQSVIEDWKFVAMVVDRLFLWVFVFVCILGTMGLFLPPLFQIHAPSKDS

[10] = stability in human liver microsomes, heat-treated human liver microsomes and human S9 fractions; format: in vitro ADME; conditions: all test systems
Source text: In human and monkey, the primary route of metabolism was through oxidation of the pyrrolidine ring (metabolite M02) before further metabolism via dioxidation to M1 or M3. In humans, parent accounted for 37% of extracellular radioactivity, M02 was 13.9%.M1 was 4.1% and M3 was 1.1%. In monkey, parent accounted for 14.2%, M02 was 5.0%, M1 was 5.8% and M3 was 29.4%. In the rat, the primary metabolite is an N-oxide-pyrimidine derivative (M9); it accounted for 71.9% of extracellular radioactivity while parent represented only 1.4%.

a6b3b4a5 = a6b3b4a5 (Homo sapiens, UniProt P30926+Q15825); experiment: Receptor binding a6b3b4a5
Distribution coefficient = format: physicochemical; conditions: pH 7.4
muscarinic M4 = target: T5, muscarinic M4 (Homo sapiens, UniProt P08173); experiment: Follow-up dose response binding assay (CEREP)
T5 construct: CEREP (contract laboratory, per the earlier reading)

[11] = system: paclitaxel-induced neuropathy, allodynia; experiment: Reversing symptoms of paclitaxel-induced neuropathy; format: in vivo, Rat
[12] = system: subjects (intranasal administration); experiment: Panel of compounds administered intranasally: effect on tearing and discomfort response; conditions: 50 microliters intranasally, three subjects, 0.01 mg/mL increased logarithmically up to 10 mg/mL
Method: A panel of twenty compounds with various receptor binding profiles, including other nicotinic acetylcholine receptor (nAchR) agonists were tested. At the onset of the experiment, 50 microliters of a 0.01 mg/mL compound formulation was administered intranasally to three subjects.

[13] = 2.5, 5, 10 mg/kg po once daily for 5 days
[14] = plasma, Swiss mouse, 1.0 mg/kg Compound 1, oral
[15] = [3H] DA release, Rat Striatal Synaptosomes
[16] = [3H]-DA release, rat striatal synaptosomes

Question: For C(=C\[C@H]1CCNC1)/c1cncnc1 [Compound 1, (R)-5-((E)-2-pyrrolidin-3-ylvinyl)pyrimidine], which “arterial pressure, heart rate, ECG parameters, body temperature” value [1] is on record?
Answer: no noteworthy changes

Question: What about the “arterial pressure, heart rate, ECG parameters, body temperature” value ([1]; listed as TC6499) of the same compound?
Answer: monkeys did not induce notable effects

Question: And the Ki (human α4β2)?
Answer: 17 nM

Question: And the other findings ([2]; 5 mg/kg po)?
Answer: 5 mg/kg produced no other findings.

Question: And the “ventricular extrasystole 10 to 25 minutes after dosing” value ([2]; 10 mg/kg po)?
Answer: 10 mg/kg was associated with 1

Question: And the emesis ([2]; 20 mg/kg po)?
Answer: emesis were noted at 20 mg/kg.

Question: And the “lengthening of the QT interval” value ([2]; 20 mg/kg po)?
Answer: slight lengthening; also recorded: after dosing. In addition, slight

Question: What about the “ventricular extrasystole 10 to 25 minutes after dosing” value ([2]; 20 mg/kg po) of the same compound?
Answer: 20 mg/kg was associated with 1

Question: What about the PQ interval [2, 13] of the same compound?
Answer: tachycardia, and decreased PQ interval.

Question: And the “QRS duration, QT interval, body temperature” value [2, 13]?
Answer: There were no changes in the QRS

Question: And the “accumulation after repeat dosing (TK)” value [2, 13]?
Answer: sexes. No accumulation was observed after

Question: And the tachycardia [2, 13]?
Answer: pressure (mainly diastolic), marked

Question: And the “dose proportionality of Cmax and AUC (TK)” value ([2]; 2.5, 5, 10 mg/kg po, either sampling day)?
Answer: TK: There were no proportional increases

Question: What about the “increase in blood pressure and bursts of sinus tachycardia” value ([2]; 5, 10, 20 mg/kg po, all dogs) of the same compound?
Answer: Compound 1 produced a transient and slight

Question: What about the “emesis shortly after dosing” value ([2]; all doses) of the same compound?
Answer: exhibited emesis

Question: And the “systolic and diastolic blood pressure and heart rate” value ([2]; oral doses up to 10 mg/kg)?
Answer: non-dose dependent increase

Question: What about the half-life [3] of the same compound?
Answer: 78 to 252 min

Question: And the Ki ([4]; Human ganglion-type (a3b4*), assay and tissue type not given)?
Answer: 8800 nM

Question: And the Ki ([4]; [3H]-epibatidine, SH-SY5Y membranes)?
Answer: 600 nM and 620 nM

Question: And the emesis ([5]; Day 1, 2-week study)?
Answer: 6/6

Question: And the emesis ([5]; Day 14, 2-week study)?
Answer: 5/6

Question: And the Tmax ([5]; both sexes, cynomolgus, monkey, in vivo, oral 10-100 mg/kg/day, 2-week and 13-week studies)?
Answer: 0.5 to 6 h

Question: And the accumulation ([5]; either study)?
Answer: Little to no accumulation

Question: And the gender effect ([5]; either study)?
Answer: no gender effect

Question: And the “mutagenicity, chromosome aberration assay” value [6]?
Answer: negative

Question: And the Kp ([7]; Swiss, mouse, brain, oral, 1 mg/kg orally, read-out: brain exposure as share of plasma exposure)?
Answer: ~0.3

Question: What about the half-life ([7]; Swiss, mouse, plasma, 1 mg/kg orally, read-out: terminal elimination half-life (converted)) of the same compound?
Answer: ~30 min

Question: And the half-life ([7]; Swiss, mouse, plasma, Swiss mouse, 1.0 mg/kg Compound 1, oral, read-out: t1/2 (converted))?
Answer: 30 min

Question: What about the Cmax [7, 14] of the same compound?
Answer: 15 ng/mL

Question: What about the Tmax [7, 14] of the same compound?
Answer: 10 min

Question: And the AUC(0-t) ([7]; plasma, Swiss mouse, 1.0 mg/kg Compound 1, oral, t = 25 h, read-out: AUC0-1)?
Answer: 10.1 ng·h/mL

Question: And the EC50 (a3b2; Human a3b2, Ca++ Flux)?
Answer: 8.7 µM

Question: What about the Emax (a3b2; Human a3b2, Ca++ Flux) of the same compound?
Answer: 66%

Question: What about the agonist type (a3b2; α3β2 subtype) of the same compound?
Answer: partial agonist

Question: What about the Ki (muscle receptor (α1β1δγ)) of the same compound?
Answer: 36 µM

Question: And the “DA Release ratio” value (α4β2 (rat), a4b2*/a6b2*; [15])?
Answer: 0.55 DA

Question: What about the EC50 (α4β2 (rat), a4b2*/a6b2*; [15]) of the same compound?
Answer: 3.9 µM and 3.93 µM

Question: And the Emax (α4β2 (rat), a4b2*/a6b2*; [15])?
Answer: 110 and 114

Question: And the EC50 (α4β2 (rat), a4b2*/a6b2*; [16])?
Answer: 3.93 µM

Question: And the Emax (α4β2 (rat), a4b2*/a6b2*; [16])?
Answer: 114 % of nicotine

Question: And the “agonist type at the α4β2 subtype” value (α4β2 (rat), a4b2*/a6b2*; [16])?
Answer: nM. Compound 1 is a full agonist at the α4β2

Question: And the solubility ([8]; 0.1N HCl, simulated gastric fluid)?
Answer: > 10000 µg/mL

Question: What about the solubility ([8]; Water (pH 5.9)) of the same compound?
Answer: > 10000 µg/mL

Question: And the solubility ([8]; aqueous buffer, 0.1M citrate buffer (pH 4.0))?
Answer: > 10000 µg/mL

Question: What about the solubility ([8]; aqueous buffer, 0.1M phosphate buffer (pH 6.8)) of the same compound?
Answer: > 10000 µg/mL

Question: And the “analgesic effects after formalin injection, Day 1” value (formalin test)?
Answer: mg/kg) and Aspirin at 100 mg/kg failed

Question: What about the Emax ([9]; Ca++ Flux) of the same compound?
Answer: 35%

Question: What about the Emax ([9]; Rb+ Flux, single point) of the same compound?
Answer: 19%

Question: What about the “Activity at rat ganglion receptors” value ([9]; PC-12 cells) of the same compound?
Answer: receptors in PC-12 cells was low (19%).

Question: What about the EC50 ([9]; Rat ganglion-type (a3b4*), Ca++ Flux) of the same compound?
Answer: 53 µM

Question: And the metabolic stability [10]?
Answer: relatively stable

Question: What about the Ki (a6b3b4a5) of the same compound?
Answer: 1100 nM

Question: And the logD (Distribution coefficient)?
Answer: < 1

Question: And the Ki (muscarinic M4)?
Answer: 5.8 µM

Question: What about the “allodynia vs vehicle-treated group” value ([11]; 3 weeks post-dosing, only the 0.1 mg/kg dose) of the same compound?
Answer: significantly different from vehicle.

Question: And the “allodynia vs vehicle-treated group” value ([11]; once daily po 0.01, 0.1, 1.0 mg/kg, all doses, 4 weeks post-paclitaxel dosing)?
Answer: at all doses significantly reduced

Question: And the reversing tactile allodynia ([11]; paclitaxel-induced, 0.01-1 mg/kg p.o.)?
Answer: efficacious

Question: What about the “Causes Tearing” value [12] of the same compound?
Answer: Yes

Question: What about the “Discomfort Response” value [12] of the same compound?
Answer: No
